The numbers were not newly measured in US10960001B2, “Opioid agonist / antagonist combination dosage forms” (KASHIV PHARMA LLC, priority 2017, dated 2021), which cites them from elsewhere.

The conditions of data set [1]: 25° C.

Regarding `C=CCN1CC[C@]23c4c5ccc(O)c4O[C@H]2C(=O)CC[C@@]3(O)[C@H]1C5` [Naloxone free base, naloxone], the solubility in water entry in data set [1] is “about 1.4 mg/mL”.
Regarding `C=CCN1CC[C@]23c4c5ccc(O)c4O[C@H]2C(=O)CC[C@@]3(O)[C@H]1C5` [Naloxone, naloxone], where the note is “after intake of therapeutic doses”, the oral bioavailability is given as 2-3%. Further, the “bioavailability with oral ingestion” value (oral ingestion) is “about 2%”.
